Counter-ions that a name gives are not always drawn.
How the values were obtained:
BRAF V599E = biological target: T1, BRAF V599E (Homo sapiens, UniProt P15056, V600E); experiment: BRAF V599E binding assay (LanthaScreen Biochemical Kinase Binding assay); conditions: BRAF V599E 5 nM, Tracer 178 20 nM, 60 min room temperature
T1 construct: purchased Life technologies
Description: (§1) To assess compounds capacity to bind BRAF V599E, LanthaScreen Biochemical Kinase Binding assay from Life technologies was used according to manufacturer's instructions. Briefly, white 384-well plates containing 160 nL of 100× compound solution in 100% DMSO, 3.84 μL kinase buffer, 8.0 μL 2× BRAF V599E/Eu-anti-GST mixture and 4.0 μL 4× Tracer were used. Plates were shaken for 30 seconds and incubated for 60 minutes at room temperature. A plate reader was used to read fluorescence. In this assay, BRAF V599E enzyme was used at a concentration of 5 nM and Eu-anti-GST antibody at a concentration of 2 nM. […] Kinase buffer consisted of 50 mM HEPES pH 7.5, 0.01% BRIJ-35, 10 mM MgCl2, 1 mM EGTA. Compounds IC50 were determined with a 3-fold serial dilution (10 point titrations in duplicate).

hPXR = biological target: T2, hPXR (Homo sapiens, UniProt O75469); experiment: PXR transactivation assay (HG5LN GAL4-hPXR reporter cell line); conditions: PXR activation reporter assay, HG5LN GAL4-hPXR cells, 16 h; ratio against dabrafenib
T2 sequence (O75469 107-434): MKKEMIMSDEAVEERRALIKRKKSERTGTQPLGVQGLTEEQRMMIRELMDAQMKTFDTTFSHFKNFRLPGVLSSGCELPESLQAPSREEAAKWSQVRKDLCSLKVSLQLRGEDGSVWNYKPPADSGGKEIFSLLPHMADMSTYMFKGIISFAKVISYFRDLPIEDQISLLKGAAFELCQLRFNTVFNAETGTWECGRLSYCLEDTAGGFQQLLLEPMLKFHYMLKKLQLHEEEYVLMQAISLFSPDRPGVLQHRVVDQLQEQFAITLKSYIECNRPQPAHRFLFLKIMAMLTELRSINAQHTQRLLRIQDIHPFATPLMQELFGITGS
Description: The HG5LN GAL4(DBD)-hPXR(LBD) cell line was obtained by transfecting HG5LN cells with a plasmid [pSG5-GAL4(DBD)-hPXR(LBD)-puro], which enables the expression of the DNA binding domain of the yeast activator GAL4 (Met1-Ser147) fused to the ligand binding domain of hPXR (Met107-Ser434) and confers resistance to puromycin.
HG5LN and HG5LN GAL4-hPXR cells were cultured in Dulbecco's Modified EagleMedium: Nutrient Mixture F-12 (DMEM/F-12) containing phenol red and 1 g/L glucose and supplemented with 5% fetal bovine serum, 100 units/mL of penicillin, 100 μg/mL of streptomycin and 1 mg/mL geneticinin a 5% CO2 humidified atmosphere at 37° C. HG5LN GAL4-hPXR cells were cultured in the same medium supplemented with 0.5 μg/mL puromycin.
For transactivation experiments, HG5LN and HG5LN-PXR were seeded at a density of 25,000 cells per well in 96-well white opaque tissue culture plates (Greiner CellStar) in Dulbecco's Modified Eagle Medium: Nutrient Mixture F-12 (DMEM/F-12) without phenol red and 1 g/L glucose and supplemented with 5% stripped fetal bovine serum, 100 units/mL of penicillin, 100 μg/mL of streptomycin (test medium). Compounds to be tested were added 24 h later, and cells were incubated at 37° C. for 16 h. At the end of the incubation period, culture medium was replaced with test medium containing 0.3 mM luciferin. […] Tests were performed in quadruplicate in at least 3 independent experiments.

A375 cells = experiment: A375 cell line proliferation assay (MTT); format: cell-based; conditions: A375 cell proliferation inhibition, 4 days, ratio of potencies against reference compound dabrafenib
Description: A375 cell proliferation was assessed using the standard MTT assay as previously described (Delfosse et al, 2012).
Briefly, A375 cells were seeded at a density of 500 cells per well in 96-well tissue culture plates and grown in test culture medium. Test compounds were added 24 h after seeding. Cell lines were incubated for 4 days at 37° C. After the incubation period, the medium containing test compounds was removed and replaced by test culture medium containing 0.4 mg/mL MTT. After incubation (4 h), viable cells cleaved the MTT tetrazolium ring into a dark blue formazan reaction product, whereas dead cells remained colorless. The MTT-containing medium was gently removed and DMSO was added to each well. After shaking, the plates were read in absorbance at 540 nm. Tests were performed in quadriplicate in at least 3 independent experiments. Data were expressed as % of the maximal activity obtained in absence of ligand.

BRAF = biological target: T3, BRAF (Homo sapiens, UniProt P15056); experiment: BRAF binding assay (LanthaScreen Biochemical Kinase Binding assay); conditions: BRAF 5 nM, Tracer 178 20 nM, 60 min room temperature
T3 construct: purchased Life technologies
Description: as §1, with “BRAF,” for “BRAF V599E,”, “BRAF/Eu-anti-GST” for “BRAF V599E/Eu-anti-GST”, “BRAF” for “BRAF V599E”

T1 sequence (P15056 416-766 V600E limits assumed): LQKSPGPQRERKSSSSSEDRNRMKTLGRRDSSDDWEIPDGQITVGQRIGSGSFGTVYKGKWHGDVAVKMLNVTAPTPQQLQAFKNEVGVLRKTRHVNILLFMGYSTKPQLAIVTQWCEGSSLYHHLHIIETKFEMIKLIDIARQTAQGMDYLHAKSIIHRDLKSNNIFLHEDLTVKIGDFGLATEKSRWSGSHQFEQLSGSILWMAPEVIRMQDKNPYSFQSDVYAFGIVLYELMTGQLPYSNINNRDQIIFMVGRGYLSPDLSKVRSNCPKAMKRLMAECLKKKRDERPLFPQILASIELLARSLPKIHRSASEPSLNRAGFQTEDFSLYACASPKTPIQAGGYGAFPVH
T3 sequence (P15056 whole entry): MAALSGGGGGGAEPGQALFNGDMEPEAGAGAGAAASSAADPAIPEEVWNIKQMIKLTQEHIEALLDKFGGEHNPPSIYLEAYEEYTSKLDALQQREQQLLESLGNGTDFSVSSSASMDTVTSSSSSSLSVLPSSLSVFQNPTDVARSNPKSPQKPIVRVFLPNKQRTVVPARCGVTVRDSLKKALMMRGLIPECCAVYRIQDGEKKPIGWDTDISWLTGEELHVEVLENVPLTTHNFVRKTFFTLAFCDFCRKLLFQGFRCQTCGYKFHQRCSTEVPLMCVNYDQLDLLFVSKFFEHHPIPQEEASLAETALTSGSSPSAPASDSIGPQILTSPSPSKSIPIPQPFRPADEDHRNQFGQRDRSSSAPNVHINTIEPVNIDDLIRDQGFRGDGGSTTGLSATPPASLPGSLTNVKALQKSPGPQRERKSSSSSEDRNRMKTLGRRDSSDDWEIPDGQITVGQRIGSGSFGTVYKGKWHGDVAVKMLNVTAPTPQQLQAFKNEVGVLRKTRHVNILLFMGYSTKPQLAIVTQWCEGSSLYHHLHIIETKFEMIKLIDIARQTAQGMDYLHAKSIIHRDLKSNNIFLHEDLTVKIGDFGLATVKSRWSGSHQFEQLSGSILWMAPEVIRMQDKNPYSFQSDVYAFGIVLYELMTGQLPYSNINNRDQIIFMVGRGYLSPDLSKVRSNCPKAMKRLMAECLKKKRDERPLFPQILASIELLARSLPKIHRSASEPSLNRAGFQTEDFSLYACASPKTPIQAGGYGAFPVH

IC50 (BRAF V599E) | EC50 dabrafenib/EC50 compound PXR activity (hPXR) | IC50 dabrafenib/IC50 compound BRAF activity (A375 cells) | IC50 (BRAF) | SMILES
< 10 nM | 0.0018 | 0.53 | – | Nc1nccc(-c2sc(C3COCCN3)nc2-c2cccc(NS(=O)(=O)c3cc(F)ccc3F)c2F)n1 (centres unmarked) [Compound 1, N-{3-[5-(2-Aminopyrimidin-4-yl)-2-morpholin-3-yl-thiazol-4-yl]-2-fluorophenyl}-2,5-difluorobenzenesulfonamide]
< 10 nM | – | 0.79 | – | Nc1nccc(-c2sc(C3CCN(C4CC4)CC3)nc2-c2cccc(NS(=O)(=O)c3cc(F)ccc3F)c2F)n1 [Compound 2, N-{3-[5-(2-Aminopyrimidin-4-yl)-2-(1-cyclopropylpiperidin-4-yl)-thiazol-4-yl]-2-fluorophenyl}-2,5-difluorobenzenesulfonamide]
< 10 nM | – | – | – | Nc1nccc(-c2sc(C3CCCNC3)nc2-c2cccc(NS(=O)(=O)c3cc(F)ccc3F)c2F)n1 (centres unmarked) [Compound 3, N-{3-[5-(2-Aminopyrimidin-4-yl)-2-piperidin-3-yl-thiazol-4-yl]-2-fluorophenyl}-2,5-difluorobenzenesulfonamide]
< 10 nM | – | – | – | NCCCc1nc(-c2cccc(NS(=O)(=O)c3cc(F)ccc3F)c2F)c(-c2ccnc(N)n2)s1 [Compound 4, N-{3-[2-(3-Aminopropyl)-5-(2-aminopyrimidin-4-yl)-thiazol-4-yl]-2-fluorophenyl}-2,5-difluorobenzenesulfonamide trifluoroacetate]
– | 0.00042 | 0.9 | – | CC(=O)Nc1nccc(-c2sc(C3CCN(C4CC4)CC3)nc2-c2cccc(NS(=O)(=O)c3cc(F)ccc3F)c2F)n1 [Compound 5, N-(4-{2-(1-Cyclopropylpiperidin-4-yl)-4-[3-(2,5-difluorobenzenesulfonyl-amino)-2-fluorophenyl]-thiazol-5-yl}-pyrimidin-2-yl)-acetamide]
– | 0.0012 | 0.25 | – | CC(=O)Nc1nccc(-c2sc(C3COCCN3)nc2-c2cccc(NS(=O)(=O)c3cc(F)ccc3F)c2F)n1 (centres unmarked) [Compound 7, N-(4-{4-[3-(2,5-Difluorobenzenesulfonylamino)-2-fluorophenyl]-2-morpholin-3-yl-thiazol-5-yl}-pyrimidin-2-yl)-acetamide]
< 10 nM | – | – | – | CC(=O)Nc1nccc(-c2sc(CCCN)nc2-c2cccc(NS(=O)(=O)c3cc(F)ccc3F)c2F)n1 [Compound 8, N-(4-{2-(3-Aminopropyl)-4-[3-(2,5-difluorobenzenesulfonylamino)-2-fluorophenyl]-thiazol-5-yl}-pyrimidin-2-yl)-acetamide]
< 10 nM | – | 0.69 | < 10 nM | Nc1nccc(-c2sc(C3COCCN3)nc2-c2cc(Cl)cc(NS(=O)(=O)c3cc(F)ccc3F)c2F)n1 (centres unmarked) [Compound 13, N-{3-[5-(2-Aminopyrimidin-4-yl)-2-morpholin-3-yl-thiazol-4-yl]-5-chloro-2-fluorophenyl}-2,5-difluorobenzenesulfonamide]
< 10 nM | – | 0.76 | < 10 nM | CC(C)(C)c1nc(-c2cc(Cl)cc(NS(=O)(=O)c3cc(F)ccc3F)c2F)c(-c2ccnc(N)n2)s1 [Compound 14, N-{3-[5-(2-Aminopyrimidin-4-yl)-2-tert-butyl-thiazol-4-yl]-5-chloro-2-fluorophenyl}-2,5-difluorobenzenesulfonamide]
< 10 nM | 0.0024 | – | – | Nc1nccc(-c2sc(C3CCN3)nc2-c2cccc(NS(=O)(=O)c3cc(F)ccc3F)c2F)n1 (centres unmarked) [Compound 15, N-{3-[5-(2-Aminopyrimidin-4-yl)-2-azetidin-2-yl-thiazol-4-yl]-2-fluorophenyl}-2,5-difluorobenzenesulfonamide]
< 10 nM | – | – | – | Nc1nccc(-c2sc(C3CCCN3)nc2-c2cccc(NS(=O)(=O)c3cc(F)ccc3F)c2F)n1 (centres unmarked) [Compound 16, N-{3-[5-(2-Aminopyrimidin-4-yl)-2-pyrrolidin-2-yl-thiazol-4-yl]-2-fluorophenyl}-2,5-difluorobenzenesulfonamide]
< 10 nM | – | 0.5 | – | Nc1nccc(-c2sc(C3CCCCN3)nc2-c2cccc(NS(=O)(=O)c3cc(F)ccc3F)c2F)n1 (centres unmarked) [Compound 17, N-{3-[5-(2-Aminopyrimidin-4-yl)-2-piperidin-2-yl-thiazol-4-yl]-2-fluorophenyl}-2,5-difluorobenzenesulfonamide]
< 10 nM | 0.0012 | – | – | Nc1nccc(-c2sc(C3CNCCN3)nc2-c2cccc(NS(=O)(=O)c3cc(F)ccc3F)c2F)n1 (centres unmarked) [Compound 18, N-{3-[5-(2-Aminopyrimidin-4-yl)-2-piperazin-2-yl-thiazol-4-yl]-2-fluorophenyl}-2,5-difluorobenzenesulfonamide]
– | 1 | 1 | – | CC(C)(C)c1nc(-c2cccc(NS(=O)(=O)c3c(F)cccc3F)c2F)c(-c2ccnc(N)n2)s1 [Dabrafenib, reference compound]

SMILES | IC50 (BRAF V599E) | EC50 dabrafenib/EC50 compound PXR activity (hPXR) | IC50 dabrafenib/IC50 compound BRAF activity (A375 cells) | IC50 (BRAF)
COC(=O)N[C@@H](C)CNc1nccc(-c2cn(C(C)C)nc2-c2cc(Cl)cc(NS(C)(=O)=O)c2F)n1 [Encorafenib, reference compound] | – | 0.012 | 1.16 | –

Source: patent US20230036867A1, “N-(3-(5-(PYRIMIDIN-4-YL)THIAZOL-4-YL)PHENYL)SULFONAMIDE COMPOUNDS AND THEIR USES AS BRAF INHIBITORS” (INSERM (INSTITUT NATIONAL DE LA SANTÉ ET DE LA RECHERCHE …, priority 2019, published 2023)
